How the values were obtained:
[1] = tested on: circulating gluten-specific CD4+ T cells in whole blood of HLA-DQ2+ CeD patients; test: Whole blood IL-2 cytokine release assay, HLA-DQ2+ CeD participants; type: cell-based, human; conditions: HLA-DQ2+ donors; whole blood, 24 hours
Description: FIGS. 10A-10B are graphs depicting the evaluation of the ability of various molarities of three gliadin polypeptides (Cv6, Av6, and 4K), two peptide mixes containing either the four individual building blocks BB1, BB2a, BB3a and BB4a (BB1-4a) or two Nexvax2 peptides (Nex01/02), and six individual building blocks or peptides (BB1, BB2a, BB3a, BB4a, Nex01, and Nex02) to restimulate gluten-specific T cell collected from HLA-DQ2+ CeD patients using a whole blood IL-2 release assay. The whole blood cytokine release assay was performed in six HLA-DQ2+ participants with biopsy-confirmed celiac disease. Whole blood was stimulated with the three gliadin polypeptide constructs Cv6, Av6, and 4K at 10, 2.5, and 0.5 μM final molarities, as indicated. Alternatively, whole blood was stimulated with a mix of peptides containing either the four building blocks BB1, BB2a, BB3a, and BB4a (BB1-4a) or Nex01 and Nex 02 (Nex01/02) at 10, 2.5, and 0.5 μM final molarities. Building blocks (BB1, BB2a, BB3a, and BB4a), Nex01, and Nex02 were also tested as individual peptides, at a single concentration of 10 μM. After 24 hours of incubation, the concentration of IL-2 was quantified from plasma using an MSD IL-2 S-plex ELISA. Data are expressed in femtogram/mL of plasma (A), or as fold change from the negative control (PBS 1×) (B). Symbols represent individual participants (patient ID); bars represent median+interquartile range of individual values.
(§1) The overarching objective of this assay was to validate that the polypeptide constructs (Cv6, Av6, and 4K) can be recognized and processed by human APCs, and they can then promote the activation of gluten-specific effector/memory CD4^+ T cells in CeD patients. A Cytokine Release Assay (CRA) was used (previously described in the literature: Anderson et al., Clinical & Experimental Immunology, 2021 June; 204(3): 321-334; and in Hardy et al., Frontiers in Immunology, 2021, Vol. 12, Article 661662, the entire contents of each of which are incorporated by reference herein). This assay quantifies IL-2 produced by circulating gluten-specific CD4^+ T cells present in the blood of CeD patients upon in vitro stimulation with gluten-derived antigens. Due to the extremely high sensitivity of this CRA, no oral exposure to gluten was required prior to blood sampling.
(§2) Informed consent was obtained from all subjects prior to blood collection.
(§3) Unfractionated blood (225 μL per well of a 96-well plate) was then rapidly restimulated for 24 hours with each of three of the polypeptide constructs provided herein (SEQ ID NO:23 wherein X is C [Cv6, i.e., SEQ ID NO:49], SEQ ID NO:23 wherein X is A [Av6, i.e., SEQ ID NO:50], and SEQ ID NO:46 [4K]) and with each of four individual building blocks (SEQ ID NO:15 wherein Z is E [BB1], SEQ ID NO:16 wherein Z is E [BB2a], SEQ ID NO:20 wherein Z is E [BB3a], and SEQ ID NO:18 wherein Z is E [BB4a]). The concentrations of the polypeptide constructs ranged from 0.5 to 10 micromolar, and the concentration for each individual building block was 10 micromolar. […] These two peptides comprise an N-terminal pyroglutamate and a C-terminal amide. Nex01 and Nex02 were the two gliadin peptides used in the Nexvax2 immunotherapeutic vaccine that was intended to restore immune tolerance to gluten in HLA-DQ2.5+ CeD patients. A positive control consisted of blood cells stimulated with phytohemagglutinin (PHA) (10 μg/mL) which activates all T cells regardless of their antigen specificity (i.e., a polyclonal activator). Negative controls consisted of cells treated with buffer only (PBS 1×).
(§4) After incubation for 24 hours at 37° C. and 5% CO2, plasma was separated from whole blood by centrifugation. Plasma was collected from each well and replicates (n=6 replicates per test) pooled. All plasma samples were frozen at −80° C. until analysis. Single plasma aliquots (100 μL) were thawed and analyzed in duplicate using MSD IL-2 S-plex according to the manufacturer's instructions.

[2] = tested on: circulating gluten-specific CD4+ T cells in whole blood of HLA-DQ8+ CeD patients; test: Whole blood IL-2 cytokine release assay, HLA-DQ8+ CeD participants; type: cell-based, human; conditions: HLA-DQ8+ donors; whole blood, 24 hours
Description: FIGS. 11A-11B are graphs depicting the evaluation of the ability of various molarities of three gliadin polypeptides (Cv6, Av6, and 4K), two peptide mixes containing either the four individual building blocks BB1, BB2a, BB3a and BB4a (BB1-4a) or two Nexvax2 peptides (Nex01/02), and six individual building blocks or peptides (BB1, BB2a, BB3a, BB4a, Nex01, and Nex02) to restimulate gluten-specific T cell collected from HLA-DQ8+ CeD patients using a whole blood IL-2 release assay. The whole blood cytokine release assay was performed in four HLA-DQ8+ participants with biopsy-confirmed celiac disease as described in FIG. 10. Data are expressed in femtogram/mL of plasma (A), or as fold change from the negative control (PBS 1×) (B). Symbols represent individual participants (patient ID); bars represent the median+interquartile range of individual values.
as §1, §2, §3, §4

[3] = Procedure: Freeze-dried aliquots of the three gliadin polypeptide constructs Cv6, Av6, and 4K, as well as the four building blocks BB1, BB2a, BB3a, and BB4a were reconstituted in pure water, loaded on a PET-Ti backing film and dried in an oven (at ~30° C.). Immediately after drying, dry deposits were reconstituted at five different molarities (approximately 1.8, 0.91, 0.45, 0.091 or 0.045 mM) by pipetting up and down with either pure water (A), PBS 1× (B), or artificial perspiration (C). The concentration in soluble material was measured by HPLC at 215 nm from the solutions recovered from PET-Ti backing films. Data are median+interquartile range of the different molarities tested. Data are expressed as the percentage of soluble material recovered, based on the expected concentration (all values above 100% were set to 100).
Immediately after drying, dry deposits were reconstituted at five different concentrations (20, 10, 5, 1 and 0.5 mg/mL) by pipetting up and down with either pure water (A), PBS 1× (B), or artificial perspiration (C). The concentration in soluble material was measured by HPLC at 215 nm from the solutions recovered from PET-Ti backing films. Data are presented as median+interquartile range of the different molarities tested. Data are expressed as the percentage of soluble material recovered, based on the expected concentration (all values above 100% were set to 100). (D) As an illustration, photographs of the reconstitution of dry deposits with pure water are shown and annotated.
Immediately after drying, deposits were reconstituted by pipetting up and down with each of pure water, PBS 1× at pH 7.0, and artificial perspiration at pH 4.5, each at five different molarities (approximately 1.8, 0.91, 0.45, 0.091, and 0.045 mM). The concentration in soluble material was measured by HPLC at 215 nm.
Immediately after drying, patch deposits were reconstituted by pipetting up and down with each of pure water, PBS 1× at pH 7.0, and artificial perspiration at pH 4.5, at five different concentrations (20, 10, 5, 1, and 0.5 mg/mL). The concentration in soluble material was measured by HPLC at 215 nm.

Row | median percentage of soluble material recovered from the patch backing film [3] | Substance | IL-2 response (in words) [1] | IL-2 response (in words) [2]
1 | 93-100% | Ac-QLQPFPQPELPYPQPELPYPQPELPYPQPQP-NH2 [BB1] | potent IL-2 responses | no or low responses
2 | 93-100% | H-PQQPFPQPEQPFPWQPQ-NH2 [BB3a] | potent IL-2 responses | no or low responses

Reference: patent publication US20260265316A1, “IMMUNOTHERAPEUTIC METHODS, COMPOUNDS, AND COMPOSITIONS FOR TREATING OR PREVENTING CELIAC DISEASE” (DBV Technologies, priority 2023, published 2026)
